These results are taken from PubChem BioAssay (NCI).

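Five compound concentrations were applied to cells in 96-well plates for 48 hours; endpoints were derived by simple linear interpolation of the resulting dose-response curve. TGI: total growth inhibition.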

Test systems include HOP-18 NSCLC; XF 498 CNS; SN12K1 renal; P388 leukemia; DMS 114 small cell lung; SNB-78 CNS; RXF-631 renal.
Common to all, as to assay: NCI tumour cell line growth inhibition, 48 h

Regarding `O=c1ccn([C@@H]2C=C(CO)[C@@H](O)[C@H]2O)c(=O)[nH]1`, the TGI in the test with HOP-18 NSCLC is over 625 µM; in the test with XF 498 CNS, under 0.0625 µM; in the test on SN12K1 renal, over 625 µM; with P388 leukemia, over 625 µM.

In turn, `O=C(/C=C/CC(O)(c1ccccc1)c1ccccc1)Nc1ccccc1Cl` had a TGI in the test on DMS 114 small cell lung of over 100 µM.

Consider `O=C(CCl)Nc1ccc(C(=O)N/N=C/c2ccc(Cl)cc2)cc1`, for which the values for the TGI in the test with SNB-78 CNS, in the test with DMS 114 small cell lung and in the test on XF 498 CNS were 15.8 µM, 2.94 µM and 3 µM, respectively.

Take `CCc1nc2c([nH]1)C(=O)c1ccccc1C2=O`: the values for the TGI in the test with SNB-78 CNS, in the test with DMS 114 small cell lung and in the test with XF 498 CNS were over 100 µM, 70.6 µM and 67.1 µM, respectively.

As to `O=C1CN(c2ccccc2)C(=O)C1C(=O)Nc1ccc(Cl)c(Cl)c1` (stereo not drawn), the TGI stood at 14.3 µM in the test with RXF-631 renal and 13.3 µM in the test with DMS 114 small cell lung.
